Measured values published in patent publication US20240368115A1, “REGULATOR CONTAINING TRICYCLIC DERIVATIVE, PREPARATION METHOD THEREFOR AND APPLICATION THEREOF” (SHUJING BIOPHARMA CO., LTD, priority 2021, published 2024).

Tests used:
5-HT2A receptor = 5-HT2A receptor (Homo sapiens, UniProt P28223); assay: Calcium flux test for 5-HT2A receptor; type: cell-based; details: CHO cell strain stably expressing 5-HT2A receptor
5-HT2B receptor = 5-HT2B receptor (Homo sapiens, UniProt P41595); assay: Calcium flux test for 5-HT2B receptor; type: cell-based; details: HEK293 cell strain stably expressing 5-HT2B receptor
5-HT2B receptor, sequence (P41595 whole entry): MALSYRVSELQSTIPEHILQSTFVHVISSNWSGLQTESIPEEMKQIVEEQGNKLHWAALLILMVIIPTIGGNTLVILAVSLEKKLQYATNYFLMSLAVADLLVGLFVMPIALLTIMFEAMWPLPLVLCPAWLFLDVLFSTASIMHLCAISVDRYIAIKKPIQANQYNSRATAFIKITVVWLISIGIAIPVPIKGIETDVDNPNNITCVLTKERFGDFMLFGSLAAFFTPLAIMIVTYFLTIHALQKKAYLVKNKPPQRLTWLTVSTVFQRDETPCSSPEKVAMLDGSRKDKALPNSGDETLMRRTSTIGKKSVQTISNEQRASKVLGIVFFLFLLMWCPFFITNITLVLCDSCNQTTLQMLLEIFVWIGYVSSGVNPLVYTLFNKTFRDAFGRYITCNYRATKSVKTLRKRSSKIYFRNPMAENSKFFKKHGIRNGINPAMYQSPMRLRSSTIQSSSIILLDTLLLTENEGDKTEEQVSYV
Excerpt: • Fluo-4 calcium flux detection kit was purchased from Invitrogen; an HEK293 cell strain stably expressing 5-HT2B receptor was purchased from GenScript; serotonin was purchased from Sigma; methiothepin was purchased from Targetmol; polylysine-coated 384-well plates and 384-well compound plates were purchased from Greiner Bio-One. Molecular Device FLIPR, Agilent Bravo liquid workstation, and Countstar BioTech cell counter.
• (1) The cultured cells were digested with trypsin, and the cell suspension was taken after the digestion was terminated. The cryopreserved cells were rapidly thawed in a water bath at 37° C., and the cells were resuspended in a plating medium. […] The pellet was resuspended in an appropriate amount of plating medium, 20 μL of cell suspension was counted using a cell counter, and the cell density was diluted to 1×10^6 cells/mL. • (2) 20 μL of cell suspension was added to a polylysine-coated 384-well plate (2×10^4 cells/well). • (3) The cell plate was incubated in a 37° C./5% CO2 incubator for 16-20 h.
• (1) The cell plate was taken out from the incubator and centrifuged at 100×g to remove the medium. […] The cell plate and agonist positive compound plate were placed into the FLIPR instrument, the detection program was run, 10 μL of the diluted compound was transferred from the agonist compound plate to the cell plate, and the fluorescence signal was read. […]

[1] = calcium flux, antagonism of serotonin

5-HT2A receptor, sequence (P28223 whole entry): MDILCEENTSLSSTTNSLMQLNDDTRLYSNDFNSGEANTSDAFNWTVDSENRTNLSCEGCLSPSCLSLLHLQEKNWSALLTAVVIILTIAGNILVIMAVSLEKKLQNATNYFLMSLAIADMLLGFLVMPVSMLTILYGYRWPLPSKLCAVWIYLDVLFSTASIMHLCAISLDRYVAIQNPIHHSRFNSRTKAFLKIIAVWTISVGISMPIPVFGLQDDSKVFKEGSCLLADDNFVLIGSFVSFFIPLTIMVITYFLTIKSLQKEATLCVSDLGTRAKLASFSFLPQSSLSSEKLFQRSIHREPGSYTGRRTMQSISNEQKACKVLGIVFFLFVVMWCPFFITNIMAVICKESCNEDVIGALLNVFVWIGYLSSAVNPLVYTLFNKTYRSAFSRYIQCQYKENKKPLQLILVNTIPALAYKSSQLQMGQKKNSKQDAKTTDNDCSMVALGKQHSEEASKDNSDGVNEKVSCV

`O=C1Nc2cc(OCCCCN3CCN(c4cccc(Cl)c4Cl)CC3)ccc2C2CC12` (stereo not shown) [Example 1, 5-(4-(4-(2,3-Dichlorophenyl)piperazin-1-yl)butoxy)-3,7b-dihydro-1H-cyclopropa[c]quinolin-2(1aH)-one] was tested, and the IC50 (5-HT2A receptor; [1]) was 731 nM, the “5-HT2A Max Inh %” value (5-HT2A receptor; positive control ketanserin 10^−7 M) was 98.4% and the IC50 (5-HT2B receptor; [1]) was 658 nM. The “5-HT2B Max Inh %” value (5-HT2B receptor; positive control methiothepin 10^−5 M) was 105.8%.
